Test results taken from PubChem BioAssay AID2060610 (Molecular Pharmacology Branch, DTP, NCI, 2025).
Several values for one entry are separate records, joined by “and”; a condition that tells them apart may be missing. Identical values can stand only once. Blank lines part the entries; values can stand above or below the compound they belong to.

System: 616215-338-R-J1-PDC complex spheroids, viability % test/control
Experiment: Anticancer human tumor 616215-338-R-J1-PDC patient-derived colon adenocarcinoma cell line growth inhibition [CLK]
Conditions: for viability, T/C: stronger effect = lower value
Excerpt: A high-throughput screen of multi-cell type tumor spheroids was designed to identify active combinations of […] and targeted small molecules. Complex spheroids include a stromal component modeled by human endothelial cells (HUVEC) and fibroblasts modeled by human mesenchymal stem cells (MSCs). The concentration ranges selected for each drug and investigational agent were based upon clinically achievable concentrations if the clinical Cmax of the agent was known.
Compounds. The drugs and investigational agents: cirtuvivint (SM08502; NSC835563), CC-671 (NSC850746), vemurafenib (NSC761431), tapotoclax (NSC804041), sotorasib (NSC818433), adagrasib (NSC831453), MRTX-1133 (NSC836407), BAY2416964 (NSC825713), copanlisib (NSC816437), inavolisib (NSC800729), abemaciclib (NSC768073), osimertinib (NSC779217), entinostat (NSC756642), eltanexor (KPT-8602, NSC794443), venetoclax (NSC766270), ceralasertib (NSC777638), bortezomib (NSC756655), olaparib (NSC753686), talazoparib (NSC767125), alisertib (NSC759677), peposertib (NSC802822), gemcitabine (NSC613327), 5-fluorouracil (NSC19893), SN-38 (NSC673596), oxaliplatin (NSC266046), paclitaxel (NSC125973), and doxorubicin (NSC123127), were obtained from the National Cancer Institute (NCI) Developmental Therapeutics Program Chemical Repository. The FDA-approved anticancer drug set is available from the Developmental Therapeutics Program at https://dtp.cancer.gov/organization/dscb/obtaining/available plates.htm. […] The stock solutions were prepared in dimethyl sulfoxide (DMSO, Sigma-Aldrich, St. Louis, MO, cat. D2650), except for the platinum complexes which were prepared in saline (Quality Biological, Gaithersburg, MD, cat. 114-055-101), at 800-fold the tested concentration and stored at -70 degrees C prior to their use. All drugs and investigational agents were tested over a range starting from a high concentration at or near the clinical Cmax and decreasing in half-log increments. If the clinical Cmax for an agent had not been determined, the highest concentration tested was 10 microM.
Cell Culture. All cells were maintained in an incubator at 37 degrees C and 5% CO2 with 95% humidity. The PDC lines were cultured according to standard operating procedures established by the NCI PDMR. Briefly, all PDCs were thawed and cultured in Matrigel-coated flasks prepared with a working solution of 1X Ham's F-12 nutrient mix, without supplementation (Invitrogen, Waltham, MA, cat. 11765054), 100 U/mL penicillin-streptomycin (Invitrogen, cat. 15140122), and 2.5% Matrigel (Corning Inc., Corning, NY, cat. 354248) for the first three passages. The 947758-054-R-J2-PDC line was cultured in 6B/Colon 1A media, which includes advanced DMEM/F-12 (Thermo Fisher Scientific, cat. 12634028), 10 mM HEPES (Thermo Fisher Scientific, cat. 15630080), 1X GlutaMAX supplement (Thermo Fisher Scientific, cat. 35050061), 0.1 mg/mL primocin (InvivoGen, cat. ant-pm-2), 10% defined fetal bovine serum, heat inactivated (HyClone Laboratories Inc., cat. SH30070.03HI), 1.25 mM N-Acetyl-L-cysteine (Sigma-Aldrich, cat. A9165), 10 mM nicotinamide (Sigma-Aldrich, cat. N0636), 1X B-27 supplement (Thermo Fisher Scientific, cat. 17504044), 1X N-2 supplement (Thermo Fisher Scientific, cat. 17502048), and 10 microM Y-27632 dihydrochloride (Tocris Bioscience, cat. 1254). The 876862-298-R-J1-PDC was cultured in 6E media, which includes all 6B/Colon 1A media components plus 50% L-WRN conditioned media (ATCC, cat. CRL-3276), 50 ng/mL recombinant human EGF recombinant protein (hEGF; Thermo Fisher Scientific, cat. PHG0311), 10 ng/mL recombinant human fibroblast growth factor 10 (hGFG-10; PeproTech, cat. 100-26), 1 ng/mL recombinant human fibroblast growth factor 2 (hFGF-2; PeproTech, cat. 100-18B), and 1 µM prostaglandin E2 (PGE2; Tocris, cat. 2296). The 227483-062-R1-J1-PDC line was cultured in Panc media, containing all 6E components except hFGF-2, with the addition of 500 nM SB-431542 (Selleckchem, cat. S1067) and 10 nM gastrin (Tocris, cat. 3006). […]

[1] = curve of first compound, second compound 0.0316 µM
[2] = curve of first compound, second compound 0.1 µM
[3] = curve of first compound, second compound 0.316 µM
[4] = curve of first compound, second compound 1 µM
[5] = curve of first compound, second compound 3.16 µM
[6] = curve of first compound, second compound 10 µM
[7] = second compound 0.0316 µM, first compound 0.0316 µM
[8] = second compound 0.0316 µM, first compound 0.1 µM
[9] = second compound 0.0316 µM, first compound 0.316 µM
[10] = second compound 0.0316 µM, first compound 1 µM
[11] = second compound 0.0316 µM, first compound 3.16 µM
[12] = second compound 0.0316 µM, first compound 10 µM
[13] = second compound 0.1 µM, first compound 0.0316 µM
[14] = second compound 0.1 µM, first compound 0.1 µM
[15] = second compound 0.1 µM, first compound 0.316 µM
[16] = second compound 0.1 µM, first compound 1 µM
[17] = second compound 0.1 µM, first compound 3.16 µM
[18] = second compound 0.1 µM, first compound 10 µM
[19] = second compound 0.316 µM, first compound 0.0316 µM
[20] = second compound 0.316 µM, first compound 0.1 µM
[21] = second compound 0.316 µM, first compound 0.316 µM
[22] = second compound 0.316 µM, first compound 1 µM
[23] = second compound 0.316 µM, first compound 3.16 µM
[24] = second compound 0.316 µM, first compound 10 µM
[25] = second compound 1 µM, first compound 0.0316 µM
[26] = second compound 1 µM, first compound 0.1 µM
[27] = second compound 1 µM, first compound 0.316 µM
[28] = second compound 1 µM, first compound 1 µM
[29] = second compound 1 µM, first compound 3.16 µM
[30] = second compound 1 µM, first compound 10 µM
[31] = second compound 3.16 µM, first compound 0.0316 µM
[32] = second compound 3.16 µM, first compound 0.1 µM
[33] = second compound 3.16 µM, first compound 0.316 µM
[34] = second compound 3.16 µM, first compound 1 µM
[35] = second compound 3.16 µM, first compound 3.16 µM
[36] = second compound 3.16 µM, first compound 10 µM
[37] = second compound 10 µM, first compound 0.0316 µM
[38] = second compound 10 µM, first compound 0.1 µM
[39] = second compound 10 µM, first compound 0.316 µM
[40] = second compound 10 µM, first compound 1 µM
[41] = second compound 10 µM, first compound 3.16 µM
[42] = second compound 10 µM, first compound 10 µM
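Further: spheroids exposed to agents for 7 days.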
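Wherever viability, T/C is given: 100% = DMSO vehicle wells.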

Compound: COc1cccc2c1C(=O)c1c(O)c3c(c(O)c1C2=O)CC(O)(C(=O)CO)CC3OC1CC(N)C(O)C(C)O1 (stereo unspecified) + CN1CCN(c2cc(C(=O)Nc3cc4cc(-c5cnn(C)c5)ccc4cn3)ccn2)CC1
IC50 [1]: 211 nM
IC50 [2]: 142 nM
IC50 [3]: < 31.6 nM
IC50 [4]: < 31.6 nM
IC50 [5]: < 31.6 nM
IC50 [6]: < 31.6 nM
viability, T/C [7]: 82.5%
viability, T/C [8]: 42.5%
viability, T/C [9]: 51.5%
viability, T/C [10]: 41.8%
viability, T/C [11]: 0.43%
viability, T/C [12]: 0.14%
viability, T/C [13]: 71%
viability, T/C [14]: 44.8%
viability, T/C [15]: 42.5%
viability, T/C [16]: 37.9%
viability, T/C [17]: 0.52%
viability, T/C [18]: 0.13%
viability, T/C [19]: 27.6%
viability, T/C [20]: 32.9%
viability, T/C [21]: 21.8%
viability, T/C [22]: 2.19%
viability, T/C [23]: 0.13%
viability, T/C [24]: 0.13%
viability, T/C [25]: 0.14%
viability, T/C [26]: 0.17%
viability, T/C [27]: 0.16%
viability, T/C [28]: 0.1%
viability, T/C [29]: 0.09%
viability, T/C [30]: 0.11%
viability, T/C [31]: 0.09%
viability, T/C [32]: 0.12%
viability, T/C [33]: 0.11%
viability, T/C [34]: 0.09%
viability, T/C [35]: 0.12%
viability, T/C [36]: 0.71%
viability, T/C [37]: 0.1%
viability, T/C [38]: 0.12%
viability, T/C [39]: 0.46%
viability, T/C [40]: 0.13%
viability, T/C [41]: 0.16%
viability, T/C [42]: 0.17%

IC50 [1]: > 10000 nM
IC50 [2]: 232 nM
IC50 [3]: < 31.6 nM
IC50 [4]: < 31.6 nM
IC50 [5]: < 31.6 nM
IC50 [6]: < 31.6 nM
Compound: C#Cc1c(F)ccc2cc(O)cc(-c3ncc4c(N5CC6CCC(C5)N6)nc(OCC56CCCN5CC(F)C6)nc4c3F)c12 (stereo unspecified) + CNC(=O)c1ccc(Nc2nc(OC3CCCC3)c3c(-c4ccc5nc(C)oc5c4)c[nH]c3n2)c(OC)c1
viability, T/C [7]: 88.8%
viability, T/C [8]: 90.4%
viability, T/C [9]: 94.1%
viability, T/C [10]: 91.1%
viability, T/C [11]: 112%
viability, T/C [12]: 110%
viability, T/C [13]: 59.7%
viability, T/C [14]: 56.2%
viability, T/C [15]: 45.5%
viability, T/C [16]: 43%
viability, T/C [17]: 32.3%
viability, T/C [18]: 24.4%
viability, T/C [19]: 47.2%
viability, T/C [20]: 43.8%
viability, T/C [21]: 43.2%
viability, T/C [22]: 42.3%
viability, T/C [23]: 33%
viability, T/C [24]: 18.6%
viability, T/C [25]: 44.1%
viability, T/C [26]: 44.2%
viability, T/C [27]: 38.8%
viability, T/C [28]: 30.7%
viability, T/C [29]: 30.4%
viability, T/C [30]: 17.8%
viability, T/C [31]: 38.7%
viability, T/C [32]: 41.3%
viability, T/C [33]: 37.3%
viability, T/C [34]: 33.1%
viability, T/C [35]: 24.2%
viability, T/C [36]: 18.2%
viability, T/C [37]: 48.6%
viability, T/C [38]: 42.6%
viability, T/C [39]: 33.2%
viability, T/C [40]: 34.7%
viability, T/C [41]: 24.8%
viability, T/C [42]: 18.9%

IC50 (curve of compound): > 10000 nM
Compound: CC(Nc1ccc2c(c1)OCCn1cc(N3C(=O)OCC3C(F)F)nc1-2)C(N)=O (stereo unspecified)
viability, T/C (compound 0.0316 µM): 89.4% and 107%
viability, T/C (compound 0.1 µM): 99.5% and 103%
viability, T/C (compound 0.316 µM): 105% and 108%
viability, T/C (compound 1 µM): 101% and 100%
viability, T/C (compound 3.16 µM): 99.9% and 110%
viability, T/C (compound 10 µM): 90.6% and 100%
